Values of other authors as cited in paper PMC5404532, “Simplified Reversed Chloroquines To Overcome Malaria Resistance to Quinoline-Based Drugs” (Antimicrobial Agents and Chemotherapy, 2017).
Read-outs that look alike come from different tables or passages of the source.

Assays:
P. falciparum Dd2 (CQR) = conditions: cited from earlier work
P. falciparum D6 (CQS) = conditions: cited from earlier work
mouse spleen lymphocytes = conditions: cited from earlier work
P. falciparum 7G8 (CQR) = conditions: CQR 7G8, cited from earlier work

Structure (SMILES)	IC50 (P. falciparum Dd2 (CQR); ref Burgess et al. (31)) [nM]	IC50 (P. falciparum D6 (CQS); ref Burgess et al. (31)) [nM]	Cytotoxicity (mouse spleen lymphocytes; ref Burgess et al. (31)) [nM]	IC50 (P. falciparum 7G8 (CQR); ref Burgess et al. (31)) [nM]	IC50 (P. falciparum Dd2 (CQR); ref Burgess et al. (33)) [nM]	IC50 (P. falciparum D6 (CQS); ref Burgess et al. (33)) [nM]	Cytotoxicity (mouse spleen lymphocytes; ref Burgess et al. (33))	IC50 (P. falciparum 7G8 (CQR); ref Burgess et al. (33)) [nM]
CN(CCCNc1ccnc2cc(Cl)ccc12)CCCN1c2ccccc2CCc2ccccc21 [Compound 1]	5.3	2.9	700	4	–	–	–	–
Clc1ccc2c(NCCCN3CCN(C(c4ccccc4)c4ccccc4)CC3)ccnc2c1 [Compound 3]	–	–	–	–	2.6	1.9	1,100 nM	11
Clc1ccc2c(NCCCN3CCNCC3)ccnc2c1 [Compound 16]	–	–	–	–	6.8	4.3	23,000 nM	–
